According to patent publication US11325936B2, “Sialidase inhibitors and preparation thereof” (The Regents of the University of California, priority 2017, dated 2022):

Key:
SpNanB = SpNanB (Streptococcus pneumoniae serotype 4, UniProt Q54727, E68D/K536E/K577E/N393D/S59P); assay: Substrate specificity of SpNanB; conditions: pNP-tagged α2-3-linked sialosides
SpNanC = assay: Substrate specificity assay of SpNanC; conditions: for Percentage conversion (%) by SpNanC: sialoside substrate 0.3 mM, SpNanC (2 μg), Tris-HCl pH 7.0, 30 min, 37° C.; for Cleavage by SpNanC, yield: reactions using 3 μg of SpNanC

SpNanB, sequence (Q54727 30-697 S59P/E68D/N393D/K536E/K577E): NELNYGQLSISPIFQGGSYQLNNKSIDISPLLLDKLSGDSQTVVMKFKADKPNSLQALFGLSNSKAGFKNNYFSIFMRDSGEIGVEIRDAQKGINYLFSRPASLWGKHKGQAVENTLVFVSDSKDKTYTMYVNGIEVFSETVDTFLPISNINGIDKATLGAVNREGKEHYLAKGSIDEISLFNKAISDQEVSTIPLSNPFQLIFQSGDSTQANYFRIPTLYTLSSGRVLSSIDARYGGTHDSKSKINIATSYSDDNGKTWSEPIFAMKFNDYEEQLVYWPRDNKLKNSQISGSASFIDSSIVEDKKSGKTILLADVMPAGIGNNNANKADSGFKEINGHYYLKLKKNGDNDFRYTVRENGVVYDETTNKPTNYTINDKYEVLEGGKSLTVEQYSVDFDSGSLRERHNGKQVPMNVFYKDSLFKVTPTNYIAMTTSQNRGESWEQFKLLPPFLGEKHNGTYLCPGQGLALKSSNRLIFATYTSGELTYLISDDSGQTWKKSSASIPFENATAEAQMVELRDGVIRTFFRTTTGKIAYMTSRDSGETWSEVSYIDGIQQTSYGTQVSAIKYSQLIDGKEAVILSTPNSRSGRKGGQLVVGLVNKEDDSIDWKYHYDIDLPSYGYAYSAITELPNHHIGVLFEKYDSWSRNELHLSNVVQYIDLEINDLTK

SMILES	Recognition by SpNanB (substrate specificity) (SpNanB)	Percentage conversion (%) by SpNanC (SpNanC) [%]	Cleavage by SpNanC, yield (SpNanC) [%]
C[C@@H](O)[C@@H](O)[C@@H]1O[C@@](O[C@H]2[C@@H](O)[C@@H](CO)O[C@@H](Oc3ccc([N+](=O)[O-])cc3)[C@@H]2O)(C(=O)O)C[C@H](O)[C@H]1NC(=O)CO [Neu5Gc9deoxyα2-3GalβpNP]	+ (+ represents >80% conversion)	85.5 ± 1.4	
O=C(O)[C@]1(O[C@H]2[C@@H](O)[C@@H](CO)O[C@@H](Oc3ccc([N+](=O)[O-])cc3)[C@@H]2O)C[C@H](O)[C@@H](O)[C@H]([C@H](F)[C@H](O)CO)O1 [Kdn7Fα2-3GalβpNP]	− (− represents <20% conversion)	0.56 ± 0.11	
[N-]=[N+]=NC1C(O)CC(OC2C(O)C(CO)OC(Oc3ccc([N+](=O)[O-])cc3)C2O)(C(=O)O)OC1C(O)C(O)CO (stereo not drawn) [Kdn5N3α2-3GalβpNP]	− (− represents <20% conversion)	0.32 ± 0.45	
COCC(O)C(O)C1OC(OC2C(O)C(CO)OC(Oc3ccc([N+](=O)[O-])cc3)C2O)(C(=O)O)CC(O)C1NC(=O)CO (centres unmarked) [Neu5Gc9OMeα2-3GalβpNP]	+ (+ represents >80% conversion)	75.0 ± 1.9	
COC(C(O)CO)C1OC(OC2C(O)C(CO)OC(Oc3ccc([N+](=O)[O-])cc3)C2O)(C(=O)O)CC(O)C1NC(C)=O (centres unmarked) [Neu5Ac7OMeα2-3GalβpNP]	+ (+ represents >80% conversion)	96.5 ± 1.7	
O=C(CO)NC1C(O)CC(OC2C(O)C(CO)OC(Oc3ccc([N+](=O)[O-])cc3)C2O)(C(=O)O)OC1C(O)C(O)CF (centres unmarked) [Neu5Gc9Fα2-3GalβpNP]	+ (+ represents >80% conversion)	72.3 ± 2.6	
O=C(O)C1(OC2C(O)C(CO)OC(Oc3ccc([N+](=O)[O-])cc3)C2O)CC(O)C(O)C(CC(O)CO)O1 (centres unmarked) [Kdn7deoxyα2-3GalβpNP]	− (− represents <20% conversion)	10.1 ± 0.0	10
CO[C@H]1[C@H]([C@H](O)[C@H](O)CO)O[C@](O[C@H]2[C@@H](O)[C@@H](CO)O[C@@H](Oc3ccc([N+](=O)[O-])cc3)[C@@H]2O)(C(=O)O)C[C@@H]1O [Kdn5OMe α2-3GalβpNP, Kdn5OMeα2-3GalβpNP]	− (− represents <20% conversion)	1.53 ± 1.02	
COCC(O)C(O)C1OC(OC2C(O)C(CO)OC(Oc3ccc([N+](=O)[O-])cc3)C2O)(C(=O)O)CC(O)C1O (centres unmarked) [Kdn9OMeα2-3GalβpNP]	− (− represents <20% conversion)	4.02 ± 1.36	
CO[C@@H]([C@@H]1O[C@](O[C@H]2[C@@H](O)[C@@H](CO)O[C@@H](Oc3ccc([N+](=O)[O-])cc3)[C@@H]2O)(C(=O)O)C[C@H](O)[C@H]1O)[C@H](O)CO [Kdn7OMeα2-3GalβpNP]	− (− represents <20% conversion)	23.4 ± 3.3	23
CC(=O)NC1C(O)CC(OC2C(O)C(CO)OC(Oc3ccc([N+](=O)[O-])cc3)C2O)(C(=O)O)OC1C(O)C(C)O (centres unmarked) [Neu5Ac9deoxyα2-3GalβpNP]	+ (+ represents >80% conversion)	93.5 ± 3.1	
CC(=O)N[C@H]1[C@H]([C@H](O)[C@H](O)CF)O[C@@](O[C@H]2[C@@H](O)[C@@H](CO)O[C@@H](Oc3ccc([N+](=O)[O-])cc3)[C@@H]2O)(C(=O)O)C[C@@H]1O [Neu5Ac9Fα2-3GalβpNP]	+ (+ represents >80% conversion)	75.6 ± 3.9	
O=C(CO)NC1C(O)CC(OC2C(O)C(CO)OC(Oc3ccc([N+](=O)[O-])cc3)C2O)(C(=O)O)OC1C(O)C(O)CO (centres unmarked) [Neu5Gcα2-3GalβpNP]	+ (+ represents >80% conversion)	80.6 ± 6.7	
O=C(CF)NC1C(O)CC(OC2C(O)C(CO)OC(Oc3ccc([N+](=O)[O-])cc3)C2O)(C(=O)O)OC1C(O)C(O)CO (centres unmarked) [Neu5AcFα2-3GalβpNP]	+ (+ represents >80% conversion)	74.8 ± 3.2	
O=C(O)C1(OC2C(O)C(CO)OC(Oc3ccc([N+](=O)[O-])cc3)C2O)CC(O)C(O)C(C(O)C(O)CF)O1 (centres unmarked) [Kdn9Fα2-3GalβpNP]	− (− represents <20% conversion)	3.70 ± 1.14	
CC(=O)NC1C(O)CC(OC2C(O)C(CO)OC(Oc3ccc([N+](=O)[O-])cc3)C2O)(C(=O)O)OC1C(F)C(O)CO (centres unmarked) [Neu5Ac7Fα2-3GalβpNP]	+ (+ represents >80% conversion)	91.0 ± 4.3	
[N-]=[N+]=NC(C(O)CO)C1OC(OC2C(O)C(CO)OC(Oc3ccc([N+](=O)[O-])cc3)C2O)(C(=O)O)CC(O)C1O (stereo not drawn) [Kdn7N3α2-3GalβpNP]	− (− represents <20% conversion)	4.50 ± 0.45	
[N-]=[N+]=NCC(=O)N[C@H]1[C@H]([C@H](O)[C@H](O)CO)O[C@@](O[C@H]2[C@@H](O)[C@@H](CO)O[C@@H](Oc3ccc([N+](=O)[O-])cc3)[C@@H]2O)(C(=O)O)C[C@@H]1O [Neu5AcN3α2-3GalβpNP]	+ (+ represents >80% conversion)	87.9 ± 1.6	
O=C(O)[C@]1(O[C@H]2[C@@H](O)[C@@H](CO)O[C@@H](Oc3ccc([N+](=O)[O-])cc3)[C@@H]2O)C[C@H](O)[C@@H](O)[C@H]([C@H](O)[C@H](O)CO)O1 [Kdnα2-3GalβpNP]	− (− represents <20% conversion)	4.50 ± 0.45	
CC(=O)N[C@H]1[C@H](C[C@H](O)CO)O[C@@](O[C@H]2[C@@H](O)[C@@H](CO)O[C@@H](Oc3ccc([N+](=O)[O-])cc3)[C@@H]2O)(C(=O)O)C[C@@H]1O [Neu5Ac7deoxyα2-3GalβpNP]	+ (+ represents >80% conversion)	91.2 ± 1.8	
COCC(=O)NC1C(O)CC(OC2C(O)C(CO)OC(Oc3ccc([N+](=O)[O-])cc3)C2O)(C(=O)O)OC1C(O)C(O)CO (centres unmarked) [Neu5AcOMeα2-3GalβpNP]	+ (+ represents >80% conversion)	81.8 ± 1.7	
[N-]=[N+]=NCC(O)C(O)C1OC(OC2C(O)C(CO)OC(Oc3ccc([N+](=O)[O-])cc3)C2O)(C(=O)O)CC(O)C1NC(=O)CO (stereo not drawn) [Neu5Gc9N3α2-3GalβpNP]	+ (+ represents >80% conversion)	89.5 ± 3.5	
O=C(O)C1(OC2C(O)C(CO)OC(Oc3ccc([N+](=O)[O-])cc3)C2O)CC(O)CC(C(O)C(O)CO)O1 (centres unmarked) [Kdn5deoxyα2-3GalβpNP]	− (− represents <20% conversion)	5.31 ± 0.23	
O=C(O)[C@@]1(O[C@H]2[C@@H](O)[C@@H](CO)O[C@@H](Oc3ccc([N+](=O)[O-])cc3)[C@@H]2O)C[C@H](O)[C@@H](F)[C@H]([C@H](O)[C@H](O)CO)O1 [Kdn5Fα2-3GalβpNP]	− (− represents <20% conversion)	0.48 ± 0.00	
